Measurements as given in patent EP1401829B1, “NOVEL HETEROCYCLIC ANTIBACTERIAL COMPOUNDS” (Microbiotix, Inc., priority 2001, dated 2002).
≈ marks a conversion by molar mass, not a printed value. Read-outs that look alike come from different tables or passages of the source. Marks after values point to notes of the source that are not given here.

Assays:
B. subtilis = test: Minimal Inhibitory Concentration (MIC) determination, 96 well plates; type: cell-based, Bacillus subtilis; settings: Bacillus subtilis; HBI medium, 16 to 18 hours at 37°C; read-out: MIC (µg/ml) B. subtilis
In short: (§1)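 Broth growth in Heart-Brain Infusion medium, seeded at about 1x10^5 CFU/ml, 16 to 18 hours at 37°C. Growth read at OD 600 nm as percent of untreated control; five concentrations per drug, five data points each, MIC reported in µg/ml.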

B. subtilis Pol IIIC = target: T1, B. subtilis Pol IIIC (Bacillus subtilis, UniProt P13267); test: Polymerase IIIC (Pol IIIC) assay, determination of Ki values; type: biochemical; settings: Ki (µM) Pol IIIC, assay in absence of dGTP or dATP; Ki is the concentration that reduces control polymerase IIIC activity by 50 percent
T1 construct: made in house
T1 sequence (P13267 whole entry): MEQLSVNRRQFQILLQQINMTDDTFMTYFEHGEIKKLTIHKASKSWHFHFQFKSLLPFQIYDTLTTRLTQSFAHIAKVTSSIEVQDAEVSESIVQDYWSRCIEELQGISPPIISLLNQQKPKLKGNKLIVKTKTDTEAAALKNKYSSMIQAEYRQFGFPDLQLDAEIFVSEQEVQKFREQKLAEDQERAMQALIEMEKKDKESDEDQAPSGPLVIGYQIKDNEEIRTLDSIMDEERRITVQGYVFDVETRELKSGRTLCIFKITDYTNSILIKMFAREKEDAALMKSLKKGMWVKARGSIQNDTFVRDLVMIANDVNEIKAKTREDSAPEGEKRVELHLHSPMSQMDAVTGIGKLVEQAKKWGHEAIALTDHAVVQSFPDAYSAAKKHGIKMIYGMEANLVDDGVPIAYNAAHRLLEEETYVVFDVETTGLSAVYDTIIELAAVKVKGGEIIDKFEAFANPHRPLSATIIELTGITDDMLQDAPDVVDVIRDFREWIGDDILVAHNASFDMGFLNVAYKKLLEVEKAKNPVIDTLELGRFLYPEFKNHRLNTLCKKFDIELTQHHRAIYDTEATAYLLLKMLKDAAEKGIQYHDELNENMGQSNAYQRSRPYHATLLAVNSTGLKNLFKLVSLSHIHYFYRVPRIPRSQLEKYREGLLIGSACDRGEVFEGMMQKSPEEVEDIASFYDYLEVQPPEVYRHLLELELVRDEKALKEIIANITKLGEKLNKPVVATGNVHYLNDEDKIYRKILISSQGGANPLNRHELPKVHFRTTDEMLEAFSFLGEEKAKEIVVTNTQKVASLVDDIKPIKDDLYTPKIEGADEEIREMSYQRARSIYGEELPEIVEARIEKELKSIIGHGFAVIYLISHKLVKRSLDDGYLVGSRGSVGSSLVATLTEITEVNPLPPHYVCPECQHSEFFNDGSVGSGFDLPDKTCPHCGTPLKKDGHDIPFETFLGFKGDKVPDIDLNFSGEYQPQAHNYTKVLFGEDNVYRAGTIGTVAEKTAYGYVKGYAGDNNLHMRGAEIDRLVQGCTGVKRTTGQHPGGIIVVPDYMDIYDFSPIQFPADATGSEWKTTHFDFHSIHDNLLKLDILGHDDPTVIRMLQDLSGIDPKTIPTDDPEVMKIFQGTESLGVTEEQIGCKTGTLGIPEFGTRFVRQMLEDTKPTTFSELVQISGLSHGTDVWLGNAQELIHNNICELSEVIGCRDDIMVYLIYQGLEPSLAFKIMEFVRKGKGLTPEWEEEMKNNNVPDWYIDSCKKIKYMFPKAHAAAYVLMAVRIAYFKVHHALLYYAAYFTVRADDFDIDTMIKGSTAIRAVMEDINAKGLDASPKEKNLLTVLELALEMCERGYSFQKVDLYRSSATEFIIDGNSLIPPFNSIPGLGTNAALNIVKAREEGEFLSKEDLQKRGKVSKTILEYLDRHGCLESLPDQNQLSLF
In short: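 Isolated B. subtilis Pol IIIC (0.025–0.06 units) run 10 min at 30°C in 30 mM Tris pH 7.5, 10 mM Mg acetate, 4 mM DTT, 20% glycerol. Substrates were 0.4 mg/ml activated calf thymus DNA, 25 µM dNTPs and 10 µM [3H]dTTP, with dGTP or dATP omitted per compound structure.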

E. fecalis = test: Minimal Inhibitory Concentration (MIC) determination, 96 well plates; type: cell-based, Enterococcus fecalis; settings: Enterococcus; HBI medium, 16 to 18 hours at 37°C; read-out: MIC (µg/ml) E. fecalis
In short: as §1

S. aureus = test: as above; type: cell-based, Staphylococcus aureus; settings: Staphylococcus aureus, read-out: MIC (µg/ml) S. aureus
In short: (§2)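 Cultures seeded at approximately 1x10^5 CFU/ml in Heart-Brain Infusion medium were exposed to five compound concentrations, five data points each, for 16 to 18 hours at 37°C. Growth at OD 600 nm was expressed as percent of control, and MIC values are given in µg/ml.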

S.aureus (Smith) = test: as above; type: cell-based, Staphylococcus aureus; settings: Staphylococcus aureus
In short: as §1

MRSA 1123 = test: MIC against clinically relevant strains; type: cell-based; settings: Staphylococcus aureus, methicillin resistant S. aureus strain
Procedure: (§3) The following methods were used to characterize representative compounds. Minimal Inhibitory Concentration (MIC) determinations. MIC values were determined in 96 well plates, with bacterial growth monitored at OD 600 nm in 200µl following an initial bacterial seeding at approximately 1x10^5 colony forming units (CFU)/ml. Each drug is evaluated at five concentrations, with five data points at each dilution. MIC values (µg/ml) were determined against actively growing cultures in Heart-Brain Infusion (HBI) medium. Cell growth in cultures supplemented with a test compound was calculated as a percent of control at OD 600 nm after 16 to 18 hours at 37°C. This plate format conserves test compound and provides precise, quantitative data with low standard deviation determinations. Polymerase IIIC (Pol IIIC) assay. DNA polymerase activity (or inhibition thereof) was measured in a 96-well plate format. B. subtilis Pol IIIC was isolated as described by Hammond and Brown (Protein Expr. Purif., 3: 65-70 (1992)). Each 25 µl assay contained 30 mM Tris, pH 7.5, 10 mM magnesium acetate, 4 mM dithiothreitol, 20% glycerol, with 25 µM dATP, dCTP, dGTP and 10 µM dTTP (^3H-labelled at 1.44 Ci/mmole) and 0.4 mg/ml activated calf thymus DNA as substrates, as described previously (see Barnes et al, op. cit). Assays were initiated by the addition of 0.025 to 0.06 units of enzyme 1 unit is the amount required to incorporate 250 pmoles of [^3H] dTMP in a standard assay), incubated for 10 minutes at 30°C and terminated by the addition of 200 µl of cold 10% trichloroacetic acid (TCA),10 mM sodium pyrophosphate. Precipitated labeled DNA was collected on glass fiber filter plates, washed, dried, and counted in a liquid scintillation counter. Determination of Ki values. DNA polymerase activity was measured in a 96-well plate format in the absence of dGTP or dATP, depending on the structure of the test compound. Each 25 µl assay contained 30 mM Tris, pH 7.5, 10 mM magnesium acetate, 4 mM dithiothreitol, 20% glycerol, with 25 µM dATP, dCTP, and 10 µM dTTP (^3H-labelled at 1.44 Ci/mmole) and 0.4 mg/ml activated calf thymus DNA as substrates, as described previously. To each well were added 2 µl of compound solution to give final concentrations ranging from 20 - 0.027 µg/ml in the assay. Assays were initiated by the addition of 0.025 to 0.06 units of enzyme (1 unit is the amount required to incorporate 250 pmoles of [^3H] dTMP in a standard assay), incubated for 10 minutes at 30 °C and terminated by the addition of 200 µl of cold 10% trichloroacetic acid, 10 mM sodium pyrophosphate. Precipitated labeled DNA was collected on glass fiber filter plates, washed, dried, and counted in a liquid scintillation counter. Ki is the concentration of test compound that reduces the control polymerase IIIC activity by 50 percent.
(§4) Compounds were also tested for antibacterial activity against certain clinically relevant strains, e.g., methicillin sensitive (MSSA) and methicillin resistant (MRSA) strains of Staphylococcus aureus.

MRSA1132 = test: MIC against clinically relevant strains; type: cell-based; settings: Staphylococcus aureus; methicillin resistant S. aureus strain
Procedure: as §3, §4

MSSA108 = test: MIC against clinically relevant strains; type: cell-based; settings: Staphylococcus aureus; methicillin sensitive S. aureus strain
Procedure: as §3, §4

MRSA1094 = test: MIC against clinically relevant strains; type: cell-based; settings: Staphylococcus aureus; methicillin resistant S. aureus strain
Procedure: as §3, §4

E. coli = test: Minimal Inhibitory Concentration (MIC) determination, 96 well plates; type: cell-based, Escherichia coli; settings: Escherichia coli; HBI medium, 16 to 18 hours at 37°C; read-out: MIC (µg/ml) E. coli
In short: as §2

E. fecium = test: as above; type: cell-based, Enterococcus fecium; settings: Enterococcus; HBI medium, 16 to 18 hours at 37°C; read-out: MIC (µg/ml) E. fecium
In short: as §1

MRSA 1094 = test: In vivo efficacy of Compound 70 in mouse models; design: species or system Staphylococcus aureus; settings: mice, 10^7 CFU/mouse + 5% Mucin; positive control, 30mg/kg, t=0
Procedure: (§5) Swiss Webster mice, ca. 20 g each, were infected with Staphylococcus aureus (Smith strain) by the intraperitoneal route. Test compounds (2, 4, 5, 6, 7, 8, 10, 12) were dissolved in 10% dimethylsulfoxide in peanut oil to a concentration of 2 mg/ml. Vancomycin was used as positive control drug (i.e., protection from lethal infection). Fifteen minutes after infection, test compounds, vancomycin, or vehicle alone were given intraperitoneally to groups of five mice each. Animals were monitored for three days, and the number of mice surviving was tabulated for each treatment.
(§6) Using the same basic procedure as described above, the in vivo efficacy of Compound 70 was also evaluated at various doses in mice infected with S. aureaus (Smith), MRSA 1094, Enterococcus faecalis, or vancomycin-resistant Enterococcus faecalis strain VRE 700802. […] Negative controls were mice infected that received no treatment. Mucin was employed as an adjuvant to facilitate bacterial infection in mice, where indicated.

[1] = tested on: Enterococcus faecalis (ATCC 29212); test: In vivo efficacy of Compound 70 in mouse models; settings: mice, 3x10^7 CFU/mouse + 5% Mucin; positive control, 100mg/kg, t=0
Procedure: as §5, §6

[2] = tested on: Staphylococcus aureus (Smith); test: In vivo efficacy of Compound 70 in mouse models; settings: mice, 10^8 CFU/mouse; positive control, 30mg/kg, t=0
Procedure: as §5, §6

[3] = HBI medium, 16 to 18 hours at 37°C
[4] = HBI medium, 16 to 18 hours at 37°C, read-out: MIC (µg/ml) S.aureus (Smith)
[5] = table of MSSA/MRSA strains, read-out: MIC (µg/ml) S. aureus (Smith)

Row | Structure (SMILES) | MIC (B. subtilis) [µg/mL] | Ki (B. subtilis Pol IIIC) [µM] | MIC (E. fecalis) [µg/mL] | MIC (S. aureus; [3]) [µg/mL] | MIC (S. aureus; table of MSSA/MRSA strains) [µg/mL] | MIC (S.aureus (Smith); [4]) [µg/mL] | MIC (S.aureus (Smith); [5]) [µg/mL] | MIC (MRSA 1123) [µg/mL] | MIC (MRSA1132) [µg/mL] | MIC (MSSA108) [µg/mL] | MIC (MRSA1094) [µg/mL] | MIC (E. coli) [µg/mL] | MIC (E. fecium) [µg/mL] | % Survival at 72 hours (MRSA 1094) | % Survival at 72 hours [1] | % Survival at 72 hours [2]
1 | CCc1cc(Nc2cc(=O)n(CCCCN3CCN(c4c(F)cc5c(=O)c(C(=O)O)cn(CC)c5c4Cl)CC3)c(=O)[nH]2)ccc1C [Compound 5, 3-{4-[1-(1-ethyl-3-carboxy-4-oxo-6-fluoro-8-chloro-7-quinolyl)-4-piperazinyl]butyl}-6-(3-ethyl-4-methylanilino)uracil] | 0.078 (≈ 0.119 µM) | 0.016 | 1.25 (≈ 1.91 µM) | 0.156 (≈ 0.239 µM) | 0.156 (≈ 0.239 µM) | 0.156 (≈ 0.239 µM) | 0.156 (≈ 0.239 µM) | 0.625 (≈ 0.957 µM) | 0.625 (≈ 0.957 µM) | 0.625 (≈ 0.957 µM) | 0.625 (≈ 0.957 µM) | 10 (≈ 15.3 µM) | 2.5 (≈ 3.83 µM) |  |  | 
2 | CCc1cc(Nc2cc(=O)n(CCCCN3CCN(c4nc5c(cc4F)c(=O)c(C(=O)O)cn5CC)CC3)c(=O)[nH]2)ccc1C [Compound 6, 3-{4-[1-(1-ethyl-3-carboxy-4-oxo-6-fluoro-8-aza-7-quinolyl)-4-piperazinyl]butyl}-6-(3-ethyl-4-methylanilino)uracil] | 0.156 (≈ 0.252 µM) | 0.018 | 1.25 (≈ 2.02 µM) | 0.625 (≈ 1.01 µM) | 0.625 (≈ 1.01 µM) | 0.625 (≈ 1.01 µM) | 0.625 (≈ 1.01 µM) | 0.625 (≈ 1.01 µM) | 0.625 (≈ 1.01 µM) | 0.625 (≈ 1.01 µM) | 1.25 (≈ 2.02 µM) | > 20 | 1.25 (≈ 2.02 µM) |  |  | 
3 | CCc1cc(Nc2cc(=O)n(CCCCN3CCN(c4c(F)cc5c(=O)c(C(=O)O)cn(CC)c5c4F)CC3)c(=O)[nH]2)ccc1C [Compound 7, 3-{4-[1-(1-ethyl-3-carboxy-4-oxo-6,8-difluoro-7-quinolyl)-4-piperazinyl]butyl}-6-(3-ethyl-4-methylanilino)uracil] | 0.156 (≈ 0.245 µM) | 0.021 | 1.25 (≈ 1.96 µM) | 0.625 (≈ 0.982 µM) | 0.625 (≈ 0.982 µM) | 1.25 (≈ 1.96 µM) | 0.625 (≈ 0.982 µM) | 0.625 (≈ 0.982 µM) | 0.625 (≈ 0.982 µM) | 0.313 (≈ 0.492 µM) | 0.625 (≈ 0.982 µM) | > 20 | 1.25 (≈ 1.96 µM) |  |  | 
4 | CCc1cc(Nc2cc(=O)n(CCCCN3CCN(c4cc5c(cc4F)c(=O)c(C(=O)O)cn5-c4ccc(F)cc4F)CC3)c(=O)[nH]2)ccc1C [Compound 12, 3-{4-[1-(1-{2,4-difluorophenyl}-3-carboxy-4-oxo-6-fluoro-7-quinolyl)-4-piperazinyl]butyl}-6-(3-ethyl-4-methylanilino)uracil] | 0.156 (≈ 0.222 µM) | 0.018 | 2.5 (≈ 3.56 µM) | 0.313 (≈ 0.445 µM) | 0.313 (≈ 0.445 µM) | 0.313 (≈ 0.445 µM) | 0.313 (≈ 0.445 µM) | 1.25 (≈ 1.78 µM) | 0.625 (≈ 0.889 µM) | 0.625 (≈ 0.889 µM) | 0.625 (≈ 0.889 µM) | 2.5 (≈ 3.56 µM) | 5 (≈ 7.12 µM) |  |  | 
5 | CN[C@H](CC(C)C)C(=O)N[C@H]1C(=O)N[C@@H](CC(N)=O)C(=O)N[C@H]2C(=O)N[C@H]3C(=O)N[C@H](C(=O)N[C@H](C(=O)O)c4cc(O)cc(O)c4-c4cc3ccc4O)[C@H](O)c3ccc(c(Cl)c3)Oc3cc2cc(c3O[C@@H]2O[C@H](CO)[C@@H](O)[C@H](O)[C@H]2O[C@H]2C[C@](C)(N)[C@H](O)[C@H](C)O2)Oc2ccc(cc2Cl)[C@H]1O [vancomycin, reference compound] |  |  |  |  |  |  |  |  |  |  |  |  |  | 95% (19/20)** | vancomycin (100mg/kg, t=0) 100% (10/10)** | 100% (20/20)**
